Assay results published in US4742083A, “Method of relieving pain and inflammatory conditions employing substituted salicylamides” (Lever Brothers Company, priority 1985, dated 1988).

Assays:
mice backs (skin) = settings: topical application to mice backs, in vivo tumor promotion studies; cited from earlier work
[1] = test system: inflammation of mice ears caused by calcium ionophore (A-23187); test: Reduction of A-23187-induced ear inflammation (edema and erythema), Examples 4-7, each animal its own control; assay type: in vivo, male outbred hairless mice; settings: for anti-inflammatory activity (in words): at the concentration used (1.5 micromole topical); for reduction of inflammation (reference anti-inflammatories): topical, 30 minutes after application of A-23187
Excerpt: In a group of 5 male outbred hairless mice, inflammation is induced on their ears by the topical application thereto of 4.0 nmole in acetone solution (total volume 10 microliter) of the known divalent calcium ionophore (antibiotic A-23187), which is derived from Streptomyces chartreusis and is a member of a known class of compounds showing ionophoric activity. See, e.g. Pressman, B. C., "Biological Applications of Ionophores", Ann. Rev. Biochem., 45, 501, 1976. […] See Marks, F., Furstenberger, G., and Kownatzki, E., "Prostaglandin E-mediated Mitogenic Stimulation of Mouse Epidermis in vivo by divalent cation ionophore A-23187 and by tumor promoter 12-O-tetradecanoyl phorbol-13-acetate, Cancer Res., 41, 696, 1981.
In each animal only one ear is treated, the other untreated ear serving as a control.
In Examples 4, 5 and 6 the compounds AN-10, APCF3-8 and AMCF3-8, respectively, are topically applied to the treated ears of different groups of five male outbred hairless mice 30 minutes following the topical application thereto of the ionophore A-23187. Specifically, 1.5 micromole of the amido compound in acetone solution (total volume 10 microliters) is applied topically to treated male outbred hairless mice ears 30 min. after topical application thereto of a calcium ionophore (A-23187, 4.0 nmole total volume to 10 microliter) in acetone. As already noted, in each case, each animal serves as its own control in that only one ear is subjected to said test regime while the other ear is left untouched. Erythema and edema are assessed 4 hrs. after application of the ionophore. In Control Example 7, 3,4',5-tribromosalicylanilide (TBS) is applied in the same manner.

[2] = test system: inflammation of mice ears caused by antibiotic A-23187; test: Reduction of A-23187-induced ear edema by ear weights, Examples 8-14; assay type: in vivo, hairless outbred mice (Skh:hr-1 strain); settings: for Reduction in Edema (%), Study B: Day 2, 1.5 micromole per 10 microliter, A-23187 (4 nmole), sacrifice from 4 hours; for antiinflammatory activity (in words): under the test conditions of Table 2
Excerpt: (§1) Acute inflammation is induced by the application of 4 nano mole of the antibiotic A-23187 to the ears of young, male, adult hairless outbred mice (Skh:hr-1 strain). Thereafter, one of the compounds AN-10, AMCF3-8, ACBXE-9, acryloyl AN-10, S-4-F and SAN-6 is applied to the affected ears and the degree of reduction in edema (inflammation) noted.
The method used in the subject Examples differs from the method used in the preceding Examples (4 through 7) in two respects.
Secondly, in the expression of the data, the objective parameter of ear weights is used as the sole data source (for the reduction of edema) as erythematous responses are not recorded. Ear weights are determined by sacrificing the animals four hours after initial application of the antibiotic A-23187 or other control material by the use of CO2 gas. Thereafter, the ears are excised by cutting along the characteristic ridge readily discernible along the inner aspect of the ears. Wet and dry ear weights are used to determine the extent of the edema or inflammation present.
In Study A, 28 test animals are randomized into four treatment groups of seven each and subjected to the following ear treatment regimen:
Each animal is dosed with a treatment consisting of a 10 microliter quantity of the assigned test material solution (or pure acetone in the case of the animals of Group D) applied to the outer aspect of both ears, i.e., 10 microliter of test material per ear. The concentrations of the respective materials in acetone solution are such that a 10 microliter dose of a solution of the antibiotic A-23187 contains 4 nano mole of such antibiotic. The corresponding quantity in the case of the AN-10 in acetone solution is 1.5 micromole. The animals of Groups A and B are initially treated with the acetone solution of A-23187. In the case of the animals of Group B alone, 10 microliter of the acetone solution of AN-10 is applied to the affected ears 1/2 hour after the application of the above-mentioned quantity of a solution in acetone of the antibiotic A-23187. The animals of Group C receive a 10 microliter dose per ear of the AN-10 in acetone solution alone. The animals of Group D receive a dose of 10 microliter per ear of pure acetone. All the test subjects are sacrificed four hours after the application of A-23187 to the animals of Groups A and B or the other test materials in the case of the animals of Groups C and D. The results are summarized in Table 2 noted below.
(§2) A second group of studies (Study B) is conducted on two consecutive days with two sets of mice (totalling 80 animals) received from the same shipment.
On Day 2, using the second set of 40 mice, sub-divided into 8 groups of 5 each, the six compounds in question are applied as acetone solutions in the manner described under Study A to mice ears inflamed with A-23187 again, as described in Study A above. As with the studies conducted on Day 1, the remaining two groups of 5 animals each serve as controls and their ears are dosed with A-23187 and acetone respectively.
(§3) The amount of each salicylamide compound applied is kept constant, for Days 1 and 2, at 1.5 micromole per 10 microliter of test solution. Sacrifice begins four hours after application A-23187, on both days, and the results are recorded. Table 2 summarizes the results of the regimen of testing involved with each one of the 30 animals in question on Day 2 with the remaining 10 animals serving as controls as already noted.

untreated mice ears = test: Inflammatory potential on untreated mice ears (Study B, Day 1); assay type: in vivo, hairless outbred mice (Skh:hr-1 strain); settings: 1.5 micromole per 10 microliter on untreated ears
Method: as §1, §2
The first batch of 40 animals is divided into 8 groups of 5 each. […] The remaining two groups of 5 animals each serve as controls and their ears are dosed with A-23187 and acetone respectively.
as §3

[3] = single dose oral route, Osborne-Mendel white rats, sixteen females; cited from earlier work
[4] = comparison; oral, rats; cited from earlier work
[5] = 1.5 micromole topical, 30 min after A-23187 (4.0 nmole), assessed 4 hrs after ionophore

SMILES: CNc1ccc2oc(C[C@H]3O[C@@]4(CC[C@H]3C)O[C@H]([C@H](C)C(=O)c3ccc[nH]3)[C@H](C)C[C@H]4C)nc2c1C(=O)O [A-23187]
- skin irritation (mice backs (skin)): potent ability to cause skin irritation
- acute inflammation on treated ears after topical A-23187 ([1]; within 4 hours following topical application, time and dose dependent): Acute inflammation develops

SMILES: CCCCCCCCC(=O)c1ccc(O)c(C(=O)Nc2cccc(C(=O)OCC)c2)c1 [ACBXE-9]
- Reduction in Edema (%), Study B ([2]; ear weights): 76%
- antiinflammatory activity (in words) [2]: significant antiinflammatory activity
- noticeable inflammation (inflammatory potential) (untreated mice ears): none of the six compounds being tested cause any noticeable inflammation

SMILES: CCCCCCCC(=O)c1ccc(O)c(C(=O)Nc2cccc(C(F)(F)F)c2)c1 [AMCF3-8]
- Reduction in Edema (%), Study B ([2]; ear weights): 81%
- antiinflammatory activity (in words) [2]: significant antiinflammatory activity
- noticeable inflammation (inflammatory potential) (untreated mice ears): none of the six compounds being tested cause any noticeable inflammation
- anti-inflammatory activity (in words) [1]: effective anti-inflammatories

SMILES: CCCCCCCCCC(=O)c1ccc(O)c(C(=O)Nc2ccc([N+](=O)[O-])cc2)c1 [AN-10]
- LD50 [3]: greater than 2000 mg./kg.
- Reduction in Edema (%), Study A ([2]; Study A, 1.5 micromole per ear, 1/2 hour after A-23187 (4 nmole), sacrificed at 4 hours, ear weights): 55%
- Reduction in Edema (%), Study B ([2]; ear weights): 81%
- antiinflammatory activity (in words) [2]: significant antiinflammatory activity
- noticeable inflammation (inflammatory potential) (untreated mice ears): none of the six compounds being tested cause any noticeable inflammation
- anti-inflammatory activity (in words) [1]: effective anti-inflammatories

SMILES: CCCCCCCC(=O)c1ccc(O)c(C(=O)Nc2ccc(C(F)(F)F)cc2)c1 [APCF3-8]
- anti-inflammatory activity (in words) [1]: effective anti-inflammatories

SMILES: CCCCc1ccc(O)c(C(=O)Nc2cccc(C(F)(F)F)c2)c1 [S-4-F]
- Reduction in Edema (%), Study B ([2]; ear weights): 70%
- antiinflammatory activity (in words) [2]: significant antiinflammatory activity
- noticeable inflammation (inflammatory potential) (untreated mice ears): none of the six compounds being tested cause any noticeable inflammation

SMILES: CCCCCCc1ccc(O)c(C(=O)Nc2ccc([N+](=O)[O-])cc2)c1 [SAN-6]
- Reduction in Edema (%), Study B ([2]; ear weights): 59%
- antiinflammatory activity (in words) [2]: significant antiinflammatory activity
- noticeable inflammation (inflammatory potential) (untreated mice ears): none of the six compounds being tested cause any noticeable inflammation

SMILES: O=C(Nc1ccc(Br)cc1)c1cc(Br)cc(Br)c1O [TBS, 3,4',5-tribromosalicylanilide]
- Reduction in Edema (%) [1, 5]: 12%
- Reduction in Erythema (%) [1, 5]: 35%
- anti-inflammatory activity (in words) [1]: essentially inactive

SMILES: C=CC(=O)Oc1ccc(C(=O)CCCCCCCCC)cc1C(=O)Nc1ccc([N+](=O)[O-])cc1 [acryloyl AN-10]
- Reduction in Edema (%), Study B ([2]; ear weights): 82%
- antiinflammatory activity (in words) [2]: significant antiinflammatory activity
- noticeable inflammation (inflammatory potential) (untreated mice ears): none of the six compounds being tested cause any noticeable inflammation

SMILES: CC(=O)Oc1ccccc1C(=O)O [aspirin, acetylsalicylic acid]
- LD50 (comparable toxicity of aspirin) [4]: about 1.75 g/kg. body weight

SMILES: C[C@]12CCC(=O)C=C1CC[C@@H]1[C@@H]2[C@@H](O)C[C@@]2(C)[C@H]1CC[C@]2(O)C(=O)CO [hydrocortisone]
- reduction of inflammation (reference anti-inflammatories) [1]: reduction of inflammation

SMILES: COc1ccc2c(c1)c(CC(=O)O)c(C)n2C(=O)c1ccc(Cl)cc1 [indomethacin]
- reduction of inflammation (reference anti-inflammatories) [1]: reduction of inflammation
